From the METLIN SMRT retention time set (Domingo-Almenara et al. 2019)

Assay: gradient 5% acetonitrile 3 min, to 50% in 2 min, to 85% in 15 min, held 3 min, 100 µL/min
Conditions: column: Zorbax Extend-C18 2.1 x 50 mm; eluents: water / acetonitrile, 0.1% formic acid
How it was run: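 Using water and acetonitrile that each contained 0.1% formic acid, mixtures of ~100 pure standards were separated at 100 μL/min on a Zorbax Extend-C18 column (2.1 × 50 mm, 1.8 μm). The HPLC fed a quadrupole time-of-flight mass spectrometer working in positive and negative ionization mode, with dead and dwell volumes of 40 μL and 900 μL. Data were acquired over 3 months. Retention time was read from computationally picked adduct peaks after manual inspection of each.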

SMILES	RP-LC retention time
Cc1cc(NC(=O)CSc2nc(-c3cccs3)nc3c2c(=O)n(C)c(=O)n3C)no1	780 s
O=C(c1ccco1)N1CCCC1c1nc(-c2cccc(C(F)(F)F)c2)no1 (stereo not given)	1020 s
CNC(=O)C1Cc2ccccc2N1C(=O)c1ccccc1SC(F)F (stereo not given)	715 s
CC(C)CC(NC(=O)c1ccc(F)cc1)C(=O)Nc1nc2ccccc2[nH]1 (stereo not given)	746 s
Cc1ccc(-c2noc(Cn3ncn4nc(-c5ccc(F)cc5)cc4c3=O)n2)cc1	817 s
Cc1[nH]c(C(=O)N2CCC(CC(=O)NCCCN3CCC(N4CCCCC4)CC3)CC2)c(C)c1C	575 s
O=C(NCC1CN(CC2CC2)CC12CCCCC2)Nc1cccc(Cl)c1 (stereo not given)	741 s
COc1ccc(CNC(=O)Cn2cnc3nc(N4CCCC(C(=O)NC5CC5)C4)sc3c2=O)cc1 (stereo not given)	655 s
O=C(NCc1csc(-c2cccs2)n1)C1CCN(S(=O)(=O)c2cccs2)CC1	830 s
Cc1nn(-c2ccccc2)c(C)c1S(=O)(=O)N1CCC(C(=O)NCc2ccccc2)CC1	886 s
CCOc1cccc(CNC(=O)c2sc3ncccc3c2-n2cccc2)c1	1050 s
CCCn1nnnc1NCc1ccc(-c2ccc(Br)cc2)o1	957 s
CN(C(=O)Cc1ccc(Cl)c(Cl)c1)[C@@H](CN1CCCC1)c1ccccc1	718 s
CCCN(CC1CCOC1)C(=O)c1cc(C)cc(C)c1 (stereo not given)	868 s
Cc1ccc(C)c(N2CCN(c3ccnc(SCC(=O)Nc4ccc(C(C)C)cc4)n3)CC2)c1	1060 s
CCOc1ccc(CCNC(=O)c2cc(S(=O)(=O)N3CCCCC3)c(C)n2C)cc1OCC	1010 s
O=C(CSc1cc(NCc2ccc(Cl)cc2)ncn1)Nc1ccc(F)cc1F	988 s
O=C(c1ccsc1)N1CCC2(CC1)NC(=O)N(Cc1cccc(Cl)c1)C2=O	816 s
CCOC(=O)c1cnc(Nc2nc(C)c3cc(C)cc(C)c3n2)nc1C	657 s
Cc1ccccc1Nc1c(-c2cccc(Cl)c2)nc2ccccn12	787 s
COc1cc(OC)cc(N2C=C(C#N)S(=O)(=O)c3ccccc32)c1	910 s
O=C(Nc1ccc(N2CCN(C3CCCC3)C2=O)nc1)c1ccc(Br)cc1	876 s
CCC1c2nccn2CCCN1C(=O)c1ccc2c(c1)OCO2 (stereo not given)	593 s

SMILES	RP-LC retention time
O=C(c1nnc(-c2ccc(S(=O)(=O)N3CCCCC3)cc2)o1)N1CCN(C2CCCCC2)CC1	700 s
CNC(=O)C1CCCN(c2nc3ncn(CC(=O)Nc4ccccc4OC)c(=O)c3s2)C1 (stereo not given)	649 s
Cc1sc2ccn(CC(C)C)c(=O)c2c1C(=O)N(C)Cc1ccccc1	917 s
COc1cc(OC)cc(N2C(=O)C3N=NN(Cc4nc(-c5ccc(OC)cc5OC)no4)C3C2=O)c1 (stereo not given)	865 s
COC1CCC12CCN(Cc1ccccn1)CC2 (stereo not given)	571 s
Cc1nc(-c2csc(S(=O)(=O)N3CCCC(C(=O)Nc4ccccc4F)C3)c2)no1 (stereo not given)	929 s
COC(=O)c1cc(OC)c(OC)cc1NC(=O)C1=Cc2cc(OC)ccc2OC=C1	829 s
CCCCn1cc(S(=O)(=O)NCc2ccccc2Cl)c2cccnc21	996 s
CCNC(=O)C1CCCN(c2nc3ncn(CC(=O)Nc4ccc(C)cc4C)c(=O)c3s2)C1 (stereo not given)	711 s
COc1ccc(-c2cc(C(=O)N3CCC(NC(=O)C4CC4)CC3)[nH]n2)cc1	652 s
O=C(c1ccccc1)N1CCC(CCNS(=O)(=O)Cc2ccccc2)CC1	803 s
COC(=O)c1ccc(NC(=O)Cc2csc(Nc3ccc(S(C)(=O)=O)cc3)n2)cc1	698 s
COc1ccc(-c2noc(Cn3ccnc3C)n2)cc1	611 s
CC(C)NC(=O)N1CCC2(CC1)Nc1cc(F)ccc1-n1cccc12	895 s
Clc1ccccc1CNc1nnc(-c2nc(C3CC3)no2)c2ccccc12	1010 s
O=C(NCCCN1CCCC1=O)c1nc(Nc2ccc(F)cc2)c2ccccc2n1	636 s
O=C(C1CCN(S(=O)(=O)c2ccc(-c3noc(C4CC4)n3)cc2)CC1)N1CCc2ccccc21	800 s
O=C(CN1C(=O)CCCc2cc(S(=O)(=O)N3CCCC3)ccc21)NC1CCCCCCC1	915 s
CCN1CCn2cc(S(=O)(=O)NCc3ccc(C)cc3)cc2C1=O	716 s
Cc1cnnn1-c1ccc(C(=O)Nc2nccs2)cc1	623 s
CCc1noc(NC(C)=O)c1-c1ccc(C)c(S(=O)(=O)NC2CCCCC2)c1	839 s
COC(=O)c1ccc(NC(=O)c2cnc3c(c2)c(=O)n(C)c(=O)n3-c2ccccc2)cc1	879 s
